Test results taken from US8999982B2, “Pharmaceutically active compounds as Axl inhibitors” (Lead Discovery Center GmbH, priority 2010, dated 2015).

Tests used:
Axl [1] = target: T1, Axl (Homo sapiens (Human), UniProt P30530); experiment: Axl binding assay
Procedure: Binding of the tracer to the kinase is detected using an EU-labeled anti-tag antibody. […] Binding of an inhibitor to the kinase competes for binding with the tracer, resulting in a loss of FRET-signal. At first a compound according to formula (I) was diluted in 20 mM Hepes pH 8.0, 1 mM DTT, 10 mM MgCl2 and 0.01% Brij35.

Axl [2] = target: T1, Axl; experiment: Cellular Axl phosphorylation assay; assay type: cell-based; details: HEK293 cells transfected with Axl cDNA, 1 hour incubation
Procedure: 3. Cellular Axl Phosphorylation Assay:
HEK293 embryonal kidney fibroblasts were transfected in 96 wells with a plasmid containing Axl cDNA. As transfection reagent Superfect (Qiagen) was used. Transfection of the sole vector backbone served as negative control of Axl expression. After overnight incubation the cellular supernatant was replaced with fresh medium. On the following day the Axl-expressing cells were incubated for 1 hour with a compound according to formula (I) at the suitable concentrations. […] The mesoscale technology was used for quantification.

T1 sequence (P30530 26-894): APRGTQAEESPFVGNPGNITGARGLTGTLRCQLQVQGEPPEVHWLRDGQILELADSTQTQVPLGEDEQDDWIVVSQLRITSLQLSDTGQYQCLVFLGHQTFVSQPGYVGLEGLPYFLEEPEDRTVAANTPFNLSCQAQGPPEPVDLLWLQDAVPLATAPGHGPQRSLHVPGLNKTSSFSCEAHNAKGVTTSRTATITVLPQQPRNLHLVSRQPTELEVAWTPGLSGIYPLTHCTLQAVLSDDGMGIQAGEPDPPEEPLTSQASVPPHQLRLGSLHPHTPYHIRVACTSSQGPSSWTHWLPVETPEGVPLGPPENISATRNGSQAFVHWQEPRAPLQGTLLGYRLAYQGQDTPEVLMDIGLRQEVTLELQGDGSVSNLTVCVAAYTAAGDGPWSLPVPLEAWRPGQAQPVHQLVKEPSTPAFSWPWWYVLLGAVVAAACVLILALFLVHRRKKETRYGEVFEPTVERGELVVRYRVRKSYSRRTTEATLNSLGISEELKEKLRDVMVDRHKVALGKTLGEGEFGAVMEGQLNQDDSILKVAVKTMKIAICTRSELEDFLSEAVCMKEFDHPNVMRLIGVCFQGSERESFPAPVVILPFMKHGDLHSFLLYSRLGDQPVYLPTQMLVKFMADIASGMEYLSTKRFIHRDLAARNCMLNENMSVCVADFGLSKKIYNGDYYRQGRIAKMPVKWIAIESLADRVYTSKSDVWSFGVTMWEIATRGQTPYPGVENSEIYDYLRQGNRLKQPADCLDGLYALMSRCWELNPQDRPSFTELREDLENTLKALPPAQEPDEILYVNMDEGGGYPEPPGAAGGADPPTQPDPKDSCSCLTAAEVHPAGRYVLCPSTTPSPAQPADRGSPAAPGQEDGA

Compound | IC50 (Axl [1]) [nM] | IC50 (Axl [2]) [nM] | IC50 (Axl [1]; listed as compound 64) [nM] | IC50 (Axl [1]; listed as compound 71) [nM]
COc1cc2nccc(Oc3ccc(N)cc3Cl)c2cc1OC [3-chloro-4-((6,7-dimethoxyquinolin-4-yl)oxy)aniline] | > 10000 | – | – | –
COc1cc(Oc2ccnc3cc(OC)c(OC)cc23)ccc1N [4-((6,7-dimethoxyquinolin-4-yl)oxy)-2-methoxyaniline] | > 10000 | – | – | –
COc1cc2nccc(Oc3ccc(N)c(C)c3)c2cc1OC [4-((6,7-dimethoxyquinolin-4-yl)oxy)-2-methylaniline] | > 10000 | – | – | –
COc1cc2nccc(Oc3ccc(N)cc3F)c2cc1OC [4-((6,7-dimethoxyquinolin-4-yl)oxy)-3-fluoroaniline] | > 10000 | – | – | –
COc1cc2nccc(Oc3ccc(N)cc3C)c2cc1OC [4-((6,7-dimethoxyquinolin-4-yl)oxy)-3-methylaniline] | > 10000 | – | – | –
COc1cc2nccc(Oc3ccc(N)cc3)c2cc1OC [4-((6,7-dimethoxyquinolin-4-yl)oxy)aniline] | > 10000 | – | – | –
COc1cc2nccc(Oc3ccc(N)nc3)c2cc1OC [5-((6,7-dimethoxyquinolin-4-yl)oxy)pyridin-2-amine] | > 10000 | – | – | –
COc1cc2nccc(Oc3ccc(NC(=O)c4csc(-c5ccc(C(F)(F)F)cc5)n4)cc3F)c2cc1OC [Example 2, N-[4-[(6,7-dimethoxy-4-quinolyl)oxy]-3-fluoro-phenyl]-2-[4-(trifluoromethyl)phenyl]thiazole-4-carboxamide] | 500 to 5000 | – | – | –
COc1cc2nccc(Oc3ccc(NC(=O)c4nn(C)cc4Br)cc3F)c2cc1OC [Example 3, 4-bromo-N-[4-[(6,7-dimethoxy-4-quinolyl)oxy]-3-fluoro-phenyl]-1-methyl-pyrazole-3-carboxamide] | 500 to 5000 | 500 to 5000 | – | –
COc1cc2nccc(Oc3ccc(NC(=O)c4ccn(C)n4)cc3F)c2cc1OC [Example 4, N-[4-[(6,7-dimethoxy-4-quinolyl)oxy]-3-fluoro-phenyl]-1-methyl-pyrazole-3-carboxamide] | 500 to 5000 | 500 to 5000 | – | –
COc1cc2nccc(Oc3ccc(NC(=O)c4nccs4)cc3F)c2cc1OC [Example 6, N-[4-[(6,7-dimethoxy-4-quinolyl)oxy]-3-fluoro-phenyl]thiazole-2-carboxamide] | 500 to 5000 | – | – | –
COc1cc2nccc(Oc3ccc(NC(=O)c4nn(C)c5ccccc45)cc3F)c2cc1OC [Example 8, N-[4-[(6,7-dimethoxy-4-quinolyl)oxy]-3-fluoro-phenyl]-1-methyl-indazole-3-carboxamide] | 500 to 5000 | – | – | –
COc1cc2nccc(Oc3ccc(NC(=O)c4cc(C)on4)cc3F)c2cc1OC [Example 9, N-[4-[(6,7-dimethoxy-4-quinolyl)oxy]-3-fluoro-phenyl]-5-methyl-isoxazole-3-carboxamide] | 500 to 5000 | – | – | –
COc1cc2nccc(Oc3ccc(NC(=O)c4csc(-c5ccccc5)n4)cc3F)c2cc1OC [Example 10, N-[4-[(6,7-dimethoxy-4-quinolyl)oxy]-3-fluoro-phenyl]-2-phenyl-thiazole-4-carboxamide] | 500 to 5000 | 500 to 5000 | – | –
CCCn1ccc(C(=O)Nc2ccc(Oc3ccnc4cc(OC)c(OC)cc34)c(F)c2)n1 [Example 13, N-[4-[(6,7-dimethoxy-4-quinolyl)oxy]-3-fluoro-phenyl]-1-propyl-pyrazole-3-carboxamide] | 500 to 5000 | < 500 | – | –
COc1cc2nccc(Oc3ccc(NC(=O)c4ccn(COCC(F)(F)F)n4)cc3F)c2cc1OC [Example 15, N-[4-[(6,7-dimethoxy-4-quinolyl)oxy]-3-fluoro-phenyl]-1-(2,2,2-trifluoroethoxymethyl)pyrazole-3-carboxamide] | 500 to 5000 | < 500 | – | –
COc1cc2nccc(Oc3ccc(NC(=O)c4nn(-c5ccc(F)cc5)cc4OCCCN(C)C)cc3F)c2cc1OC [Example 20, N-[4-[(6,7-dimethoxy-4-quinolyl)oxy]-3-fluoro-phenyl]-4-(3-dimethylaminopropoxy)-1-(4-fluorophenyl)pyrazole-3-carboxamide] | 500 to 5000 | 500 to 5000 | – | –
COc1cc2c(Oc3ccc(NC(=O)c4nc(-c5ccccc5OC)cs4)nc3)ccnc2cc1OCC1CCNCC1 [Example 100, N-(5-((6-methoxy-7-(piperidin-4-ylmethoxy)quinolin-4-yl)oxy)pyridin-2-yl)-4-(2-methoxyphenyl)thiazole-2-carboxamide] | 500 to 5000 | – | – | –
COc1cc2nccc(Oc3ccc(NC(=O)c4cnn(-c5ccccc5)c4C(F)(F)F)cc3F)c2cc1OC [Ref1, N-(4-((6,7-dimethoxyquinolin-4-yl)oxy)-3-fluorophenyl)-1-phenyl-5-(trifluoromethyl)-1H-pyrazole-4-carboxamide, reference compound] | > 10000 | – | – | –
COc1cc2nccc(Oc3ccc(NC(=O)c4cc(-c5ccccc5)on4)cc3F)c2cc1OC [Ref2, N-(4-((6,7-dimethoxyquinolin-4-yl)oxy)-3-fluorophenyl)-5-phenylisoxazole-3-carboxamide, reference compound] | > 10000 | – | – | –
COc1cc2nccc(Oc3ccc(NC(=O)c4ccco4)cc3)c2cc1OC [Ref3, N-(4-((6,7-dimethoxyquinolin-4-yl)oxy)phenyl)furan-2-carboxamide, reference compound] | > 10000 | – | ≥ 10000 | –
COc1cc2nccc(Oc3ccc(NC(=O)c4ccncc4)cc3)c2cc1OC [Ref5, N-(4-((6,7-dimethoxyquinolin-4-yl)oxy)phenyl)isonicotinamide, reference compound] | > 10000 | – | – | ≥ 10000
COc1cc2c(Oc3ccc(N)cc3F)ccnc2cc1OCC1CCN(C(=O)OC(C)(C)C)CC1 [tert-butyl 4-(((4-(4-amino-2-fluorophenoxy)-6-methoxyquinolin-7-yl)oxy)methyl)piperidine-1-carboxylate] | > 10000 | – | – | –

Continued, values first:

IC50 (Axl [1]) [nM] | IC50 (Axl [2]) [nM] | IC50 (Axl [1]; listed as compound 64) [nM] | IC50 (Axl [1]; listed as compound 71) [nM] | Compound
500 to 5000 | 500 to 5000 | – | – | COc1cc2nccc(Oc3ccc(NC(=O)c4cc(C)n(C)n4)cc3F)c2cc1OC [Example 1, N-[4-[(6,7-dimethoxy-4-quinolyl)oxy]-3-fluoro-phenyl]-1,5-dimethyl-pyrazole-3-carboxamide]
< 500 | < 500 | – | – | COc1cc2nccc(Oc3ccc(NC(=O)c4cc(C)n(C(C)(C)C)n4)cc3F)c2cc1OC [Example 5, 1-tert-butyl-N-[4-[(6,7-dimethoxy-4-quinolyl)oxy]-3-fluoro-phenyl]-5-methyl-pyrazole-3-carboxamide]
< 500 | < 500 | – | – | CCOc1cn(-c2ccc(F)cc2)nc1C(=O)Nc1ccc(Oc2ccnc3cc(OC)c(OC)cc23)c(F)c1 [Example 16, N-[4-[(6,7-dimethoxy-4-quinolyl)oxy]-3-fluoro-phenyl]-4-ethoxy-1-(4-fluorophenyl)pyrazole-3-carboxamide]
< 500 | < 500 | – | – | COc1cc2nccc(Oc3ccc(NC(=O)c4nn(-c5ccc(F)cc5)cc4OC)cc3F)c2cc1OC [Example 17, N-[4-[(6,7-dimethoxy-4-quinolyl)oxy]-3-fluoro-phenyl]-1-(4-fluorophenyl)-4-methoxy-pyrazole-3-carboxamide]
< 500 | < 500 | – | – | COc1cc2nccc(Oc3ccc(NC(=O)c4nn(-c5ccc(F)cc5)cc4OCC4CC4)cc3F)c2cc1OC [Example 18, 4-(cyclopropylmethoxy)-N-[4-[(6,7-dimethoxy-4-quinolyl)oxy]-3-fluoro-phenyl]-1-(4-fluorophenyl)pyrazole-3-carboxamide]
< 500 | < 500 | – | – | COc1cc2nccc(Oc3ccc(NC(=O)c4nn(-c5ccc(F)cc5)cc4OCCN(C)C)cc3F)c2cc1OC [Example 19, N-[4-[(6,7-dimethoxy-4-quinolyl)oxy]-3-fluoro-phenyl]-4-(2-dimethylaminoethoxy)-1-(4-fluorophenyl)pyrazole-3-carboxamide]
< 500 | < 500 | – | – | COc1cc2nccc(Oc3ccc(NC(=O)c4nn(-c5ccc(F)cc5)cc4OC(C)C)cc3F)c2cc1OC [Example 21, N-[4-[(6,7-dimethoxy-4-quinolyl)oxy]-3-fluoro-phenyl]-1-(4-fluorophenyl)-4-isopropoxy-pyrazole-3-carboxamide]
< 500 | < 500 | – | – | CCOc1cn(-c2ccc(F)cc2Cl)nc1C(=O)Nc1ccc(Oc2ccnc3cc(OC)c(OC)cc23)c(F)c1 [Example 23, 1-(2-chloro-4-fluoro-phenyl)-N-[4-[(6,7-dimethoxy-4-quinolyl)oxy]-3-fluoro-phenyl]-4-ethoxy-pyrazole-3-carboxamide]
< 500 | < 500 | – | – | CCOc1cn(-c2ccc(F)cc2)nc1C(=O)Nc1ccc(Oc2ccnc3cc(OC)c(OC)cc23)cc1 [Example 24, N-[4-[(6,7-dimethoxy-4-quinolyl)oxy]phenyl]-4-ethoxy-1-(4-fluorophenyl)pyrazole-3-carboxamide]
< 500 | < 500 | – | – | COc1cc2nccc(Oc3ccc(NC(=O)c4nn(-c5ccc(F)cc5)cc4OC(C)C)cc3)c2cc1OC [Example 25, N-[4-[(6,7-dimethoxy-4-quinolyl)oxy]phenyl]-1-(4-fluorophenyl)-4-isopropoxy-pyrazole-3-carboxamide]
< 500 | < 500 | – | – | COc1cc2nccc(Oc3ccc(NC(=O)c4nn(-c5ccc(F)cc5)cc4OCC4CC4)cc3)c2cc1OC [Example 26, 4-(cyclopropylmethoxy)-N-[4-[(6,7-dimethoxy-4-quinolyl)oxy]phenyl]-1-(4-fluorophenyl)pyrazole-3-carboxamide]
< 500 | – | – | – | CCOc1cn(-c2ccn(C)n2)nc1C(=O)Nc1ccc(Oc2ccnc3cc(OC)c(OC)cc23)c(F)c1 [Example 106, N-(4-((6,7-dimethoxyquinolin-4-yl)oxy)-3-fluorophenyl)-4-ethoxy-1′-methyl-1′H-[1,3′-bipyrazole]-3-carboxamide]
